# Laboratory results published in the OPERA property sets (Mansouri et al. 2018).
# Settings: for log10 BCF / log10 biotransformation half-life (days): fish
Structure (SMILES),melting point [°C],boiling point [°C],other results
CC(=O)[C@H]1CC[C@H]2[C@@H]3CC=C4C[C@@H](O)CC[C@]4(C)[C@H]3CC[C@]12C,192,–,–
CCP(=O)(c1ccccc1)c1ccccc1,122,–,–
FC(F)OC(Cl)C(F)(F)F (stereo unspecified),48.5,48.5,log10 Henry constant (atm·m³/mol): -1.54
CCCC(C)I (stereo unspecified),-50,150,log10 vapour pressure (mmHg): 1.04
CCCCCC1CCCCC1,-57.5,204,log10 vapour pressure (mmHg): -0.429
CCOC(=O)CC(C(C)=O)C(=O)OCC (stereo unspecified),–,255,–
Nc1ccccc1O,–,–,ready biodegradability: not readily biodegradable
CC(=O)C1CC=C(C)CC1 (stereo unspecified),–,171,–
C1SSCSSS1,60.5,–,–
C#CC(OC(=O)C1C(C=C(C)C)C1(C)C)/C(C)=C/CC (stereo unspecified),–,296,log10 vapour pressure (mmHg): -3.98
C=CCC1CCCC1,-111,125,–
O=C1CCC(=O)CC1,78,–,–
O=C(c1ccccc1)C(F)(F)F,-40,153,–
FC(F)=C(F)OC(F)(F)C(F)(F)C(F)(F)F,–,–,ready biodegradability: not readily biodegradable
Cc1ccccc1N=C(N)Nc1ccccc1C,–,–,ready biodegradability: not readily biodegradable
NC1CC1,-35.4,50.5,–
O=S(=O)(O)NC1CCCCC1,170,–,–
CCCCNC(=S)NCCCC,64,–,–
OC(c1ccccc1)c1ccccc1,69,298,log10 Koc (L/kg): 2.34; log10 vapour pressure (mmHg): -4.56; ready biodegradability: readily biodegradable
CCCCCCCC(=O)CC,2.5,203,–
OCCCCCO,-18,239,log10 vapour pressure (mmHg): -2.41; ready biodegradability: readily biodegradable
Cc1c(C)c2ccccc2c2ccccc12,144,–,–
COc1ccccc1Br,2.5,216,–
O=[N+]([O-])c1ccc(F)cc1,21,205,–
CCN(C(=O)Oc1cccc(NC(=O)OC(C)C)c1)c1ccccc1,110,–,–

Structure (SMILES),melting point [°C],boiling point [°C],other results
c1ccc(C(=C(c2ccccc2)c2ccccc2)c2ccccc2)cc1,225,420,–
Cc1c(C)n(C)c2ccccc12,18,283,–
CCOC(CN(C)C)OCC,–,170,–
c1coc(CNc2[nH]cnc3ncnc2-3)c1,266,–,–
COc1cc(O)c2c(=O)c(O)c(-c3ccc(O)c(O)c3)oc2c1,295,–,–
CCC=C(C)CC,–,112,log10 vapour pressure (mmHg): 1.91
C/C=C(C)/C=C/C=C(C)C,–,188,–
O=[N+]([O-])CCCl,–,174,–
O=S(=O)(Cl)c1c(F)c(F)c(F)c(F)c1F,–,210,–
COc1ccc2c(OC(C)=O)c(OC)c(OC)c(OC(C)=O)c2c1,77.5,–,–
COC(=O)C(C)Oc1ccc(Oc2ncc(C(F)(F)F)cc2Cl)cc1 (stereo unspecified),56,–,log10 Koc (L/kg): 1.88; log10 vapour pressure (mmHg): -5.22; log10 BCF: 1.23; log10 biotransformation half-life (days): -1.08
O=Cc1ccc(Br)o1,–,201,–
C=CCN=C(S)NCCO,78,–,–
CCCC(=O)NN,45.5,–,–
COc1cc(Cl)ccc1O,16.5,241,–
O=C(Cc1ccccc1)Cc1ccccc1,35,331,log10 vapour pressure (mmHg): -3.13
C=CCOC(=O)CC(C)=O,-85,196,–
CCOC(=O)c1cnn(C)c1S(=O)(=O)NC(=O)Nc1nc(OC)cc(OC)n1,182,–,–
CCCN(CC)CC1COC2(CCC(C(C)(C)C)CC2)O1 (stereo unspecified),–,–,log10 vapour pressure (mmHg): -3.89
O=C(c1cccs1)c1cccs1,90,326,–
CC(C)CC(Cl)Cl,–,130,–
O=C(O)CNC(=O)c1ccccc1O,168,–,–
O=C(O)c1cc(F)cc(F)c1,122,–,–
Ic1cccc2ccccc12,4.2,302,ready biodegradability: readily biodegradable
C=CC(F)(F)Br,–,42,–

Structure (SMILES),melting point [°C],boiling point [°C],other results
O=Cc1cccc(Oc2ccccc2)c1,–,–,ready biodegradability: not readily biodegradable
COc1ccc(COC(=O)Cc2ccccc2)cc1,–,370,–
CNCCNC,–,120,–
CCOC(=O)Oc1c(OC)cc(C(=O)O[C@@H]2C[C@@H]3CN4CCc5c([nH]c6cc(OC)ccc56)[C@H]4C[C@@H]3[C@H](C(=O)OC)[C@H]2OC)cc1OC,177,–,–
O=C(Cl)c1ccc(C(=O)Cl)cc1,83.5,258,–
CCOP(=S)(OCC)SCn1c(=O)oc2cc(Cl)ccc21,47.8,–,log10 Koc (L/kg): 2.63
CCNC(=O)NC(=O)/C(C#N)=N/OC,160,–,log10 Koc (L/kg): 2.09; log10 vapour pressure (mmHg): -5.95
Cc1cccc([N+](=O)[O-])c1O,70,–,log10 Henry constant (atm·m³/mol): -4.47
CCOP(=O)(NC(C)C)Oc1ccc(S(C)=O)c(C)c1 (stereo unspecified),–,–,log10 Koc (L/kg): 1.57
CC(=O)Oc1ccccc1C,–,208,–
CCc1ccc(C(C)C)cc1,–,197,–
CC(C)NNC(=O)COc1ccc(Cl)cc1,93.5,–,–
CC(C)CC(O)CC(C)C,–,174,log10 vapour pressure (mmHg): -0.519
O=C1OC(=O)c2c(I)c(I)c(I)c(I)c21,328,–,–
NC(=O)CCC/N=C(\c1ccc(Cl)cc1)c1cc(F)ccc1O,134,–,–
Nc1ccc(S(N)(=O)=O)cc1,–,–,ready biodegradability: not readily biodegradable
CC(=O)CCCCC(C)=O,44,–,–
CO[Si](C)(C)OC,–,82,–
O=C(O)C=Cc1cccc([N+](=O)[O-])c1,179,–,–
N=C(N)S(=O)O,–,–,ready biodegradability: readily biodegradable
CCCCCCCCCCCCCCCCCCCCCCCCCCCCCCCCCCCC,76.5,–,ready biodegradability: readily biodegradable
CC(=O)OCc1ccco1,–,179,–
N#Cc1nccnc1C#N,132,–,–
Clc1ccc(Cl)c(I)c1,22,253,–
CCC(O)CCC(F)(F)F (stereo unspecified),–,141,–

Structure (SMILES),melting point [°C],boiling point [°C],other results
CC1=CC(=O)C(C2=C(O)C(=O)C(C)=CC2=O)=C(O)C1=O,230,–,–
C=C(CC(=O)OC)C(=O)OC,38,208,–
CC1CNC(C)CN1 (stereo unspecified),116,163,log10 vapour pressure (mmHg): 0.422
Nc1ccc(Cl)c(Cl)c1,72,272,log10 Koc (L/kg): 2.29; log10 vapour pressure (mmHg): -2.2; ready biodegradability: not readily biodegradable; log10 BCF: 1.11; log10 biotransformation half-life (days): -1.09
OC(c1ccc(Cl)cc1)c1cc2ccccc2o1 (stereo unspecified),48.5,–,–
FC(F)(F)C(F)(F)C(F)(F)C(F)(F)C(F)(F)C(F)(F)C(F)(F)Cl,–,108,–
Nc1c(Cl)ccc(Cl)c1C(=O)O,155,–,–
OC(c1ccc(Cl)cc1)(c1ccc(Cl)cc1)C(Cl)(Cl)Cl,77.5,–,log10 Koc (L/kg): 3.7; log10 vapour pressure (mmHg): -6.4; ready biodegradability: not readily biodegradable; log10 BCF: 3.79; log10 biotransformation half-life (days): 1.99
COc1cc([C@@H]2c3cc4c(cc3C(O[C@@H]3O[C@@H]5COC(c6cccs6)O[C@H]5[C@H](O)[C@H]3O)C3COC(=O)[C@@H]32)OCO4)cc(OC)c1O (stereo partly specified),244,–,–
CCc1ccc(C)nc1,-70.9,178,log10 vapour pressure (mmHg): 0.155
CC(C)(C)CN,–,82,–
Ic1ccc(-c2ccccc2)cc1,114,320,–
O=C(O)CNCP(=O)(O)O,190,–,log10 Koc (L/kg): 3.32
COc1cccc(C)c1C,29,199,–
CSSC,-85,110,log10 Henry constant (atm·m³/mol): -2.92; log10 vapour pressure (mmHg): 1.46; ready biodegradability: not readily biodegradable
COCCOC(C)=O,-70,143,log10 vapour pressure (mmHg): 0.301; ready biodegradability: readily biodegradable
C=C(C)CCC(C)=O,–,150,–
CCCCC(=O)c1ccc(N)cc1,74.5,–,–
O=C1OC(=Cc2ccccc2)c2ccccc21,100,–,–
CCCC(C(=O)OCC)C(=O)OCC,–,221,–
Clc1ccccc1NNc1ccccc1Cl,–,–,ready biodegradability: not readily biodegradable; log10 BCF: 3.66
O=C(O)C(Cl)(Cl)Cl,57.5,196,log10 Henry constant (atm·m³/mol): -7.87; log10 Koc (L/kg): 0.3; log10 vapour pressure (mmHg): -1.22; ready biodegradability: not readily biodegradable; log10 BCF: 0.23
CCCCCCCCCCCCCC(=O)OC(=O)CCCCCCCCCCCCC,53.4,–,–
Cc1ccc2c(c1)CC(C)CC2 (stereo unspecified),–,237,–
O=C(n1ccnc1)n1ccnc1,119,–,–

Structure (SMILES),melting point [°C],boiling point [°C],other results
CC(=O)Nc1ccc(-c2ccc(N)cc2)cc1,–,–,ready biodegradability: not readily biodegradable
CCOC(=O)C(Br)(Br)Br,–,225,–
CCCCOC(=O)C1=CC(=O)CC(C)(C)O1,–,263,log10 vapour pressure (mmHg): -3.52
CC1(C)[C@@H]2CC(=O)[C@@](C)(O)[C@H]1C2,38.5,–,–
CNC(=O)O/N=C/C(C)(C)S(C)(=O)=O,141,–,log10 Koc (L/kg): 0.42; log10 vapour pressure (mmHg): -4.05
CCCOC(C)C,–,83,–
CS(=O)(=O)NC(=O)c1cc(Oc2ccc(C(F)(F)F)cc2Cl)ccc1[N+](=O)[O-],220,–,log10 Koc (L/kg): 1.78
C=CC(C)=CC,–,77,–
CC(C)CCCCCO,-106,188,–
CCC(C)C(C)=O (stereo unspecified),–,118,log10 vapour pressure (mmHg): 1.06
CCCCC(CC)C(=O)O (stereo unspecified),–,228,log10 vapour pressure (mmHg): -1.52
O=[N+]([O-])c1ccc(Oc2ccccc2)c([N+](=O)[O-])c1,71,–,–
Cc1cc2ccoc2cc1C,–,221,–
Brc1cccnc1,–,173,log10 vapour pressure (mmHg): 0.244
Brc1ccccc1I,9.5,257,–
C=CC(=O)OCCO,–,191,log10 vapour pressure (mmHg): -1.28; ready biodegradability: readily biodegradable
Cc1cc(C)c(C)c(C)c1,-23.7,198,log10 biodegradation half-life (days): 0.477; log10 vapour pressure (mmHg): -0.303
c1ccc2c(c1)Cc1ccccc1O2,100,311,–
CCc1nc(C)cnc1C,–,180,–
CCCCCCCC/C=C\CCCCCCCC#N,-1,–,–
O=C(Cl)c1ccc(Cl)c(Cl)c1,25,242,–
COc1ccccc1Oc1ccccc1OC,79.5,330,–
CCCCCF,-120,62.8,log10 vapour pressure (mmHg): 2.27
C[N+]1(CCC(O)(c2ccccc2)c2cccs2)CCOCC1.[I-] (stereo unspecified),190,–,–
CC[C@H](C)C(C)(C)C,-112,110,log10 vapour pressure (mmHg): 1.51
